From patent publication US8426448B2, “1,5-diphenyl-pyrrolidin-2-one compounds as CB-1 ligands” (Eli Lilly and Company, priority 2008, dated 2013)
Structures can show the parent of a compound that is named as a salt.

Legend:
Dog oral bioavailability = format: in vivo; conditions: plasma; fasted female beagle dog; IV 0.25 mg/kg, PO 1 mg/kg; mean±s.d, n=2; based on AUC0-∞
Protocol: (§1) Cohorts of three or four 250-450 gram male Sprague-Dawley rats or approximately 10 kg Beagle dogs (female or male) are used. […] Dogs are administered i.v. by cannulated cephalic vein and blood collections are by jugular vein. Animals are first dosed at 0.25 mg/kg i.v. and blood samples (0.2 mL) are then collected using EDTA as an anticoagulant at 0.0830, 0.25, 0.50, 1, 2, 4, 8, 12, 24, 48, 72, 96, and 120 hours. Next after at least two days and after 18-24 hours fasting, the animals are dosed at 1.0 mg/kg by oral gavage. During the course of a study the total of blood (ml) collected is not to exceed 1% of total body weight in grams. Should larger blood volumes be required, the sampled blood volume is replace with heparinized whole blood from a donor animal. When using a cross-over study design, rats receive a volume of heparinized whole blood following the final sample of each study day approximately equal to that removed during study.
(§2) Compound plasma concentrations are measured by LC/MS/MS assays. Data are then analyzed using standard non-compartmental pharmacokinetic analysis. Oral bioavailability is calculated as: (AUC0-infinity,oral/AUC0-infinity,i.v.)×(Dose,i.v./Dose,oral)×100%

Rat oral bioavailability = format: in vivo; conditions: Sprague-Dawley, plasma, fasted male SD rats, IV 0.25 mg/kg (20% Pharmasolve, 10% HPBCD, pH 3), PO 1 mg/kg (1% CMC, 0.5% SLS, 0.5% AF), mean±s.d, n=3, based on AUC0-∞
Protocol: as §1, §2

hCB-1 [1] = biological target: T1, hCB-1 (Homo sapiens, UniProt P21554); assay: hCB1-CHO agonist mode SPA GTP-γ-35S binding assay; format: biochemical; set-up: purchased Applied Cell Sciences, Rockville, Md; host or cells: CHO cell membranes; conditions: inverse agonism, read-out: hCB-1 SPA GTPγS CHO Membrane Agonist Relative EC50 inverse
Protocol: Compounds of the present invention may be tested for functional activity at the CB-1 and CB-2 receptors in both agonist and antagonist modes using SPA (Scintillation Proximity Assay) based GTP-γ-^35S binding assays. All assay components are prepared in assay buffer (20 mM HEPES, 100 mM NaCl, 5 mM MgCl2, pH 7.4) at room temperature. Semi-log dilutions of test compound are prepared in assay buffer containing BSA (0.125% final conc.) for the agonist mode assays. For the antagonist mode assays, test compounds are prepared in the same manner but also include an 80% efficacious dose of a full agonist (methanandamide). GTP-γ^35S binding for the antagonist assay may be measured in a 96 well format using a modification of an antibody capture technique previously described. (DeLapp, N W, et al. (1999) J Pharmacol Exp Ther 289:946-955.) The CB-2 receptor agonist activity may be measured using a similar method using hCB2-Sf9 membranes. The CB-1 receptor agonist activity may be measured using a whole membrane capture technique using hCB1-CHO membranes. All incubations are done at room temperature.
hCB1-CHO membrane, GDP (1 μM final conc.), and saponin (10 μg/mL final conc., Sigma, St Louis, Mo.) are combined and prepared on ice as for the antagonist assays, above. Diluted test compounds, GTP-γ-^35S ([…] final conc.) and membranes are combined in the assay plate and incubated for 30 min. Then 1 mg/well Wheatgerm Agglutinin SPA beads (GE Healthcare, Piscataway, N.J.) are added, plates are sealed and vortexed and incubate for 1 hr. before spinning and counting in the same fashion as for the antagonist assays, above.
Data are analyzed as follows: Background is subtracted from all wells. Percent agonist efficacy is determine by normalizing agonist/inverse agonist dose response data to the response obtained for a full agonist (methanandamide). Percent antagonist inhibition is calculated by first normalizing the data to the signal generated by a saturating concentration of the full agonist (methanandamide). Then the data are analyzed using a 4-parameter logistic reduced fit (Activity Base™ and XLFit3™ from IDBS, Emeryville, Calif.). Kb values are determined using a modification of the Cheng-Prusoff relationship: Kb=IC50/(1+[agonist]/EC50), where “IC50” is determined from a four parameter fit of displacement curves, “[agonist]” is the agonist challenge concentration (nM), and “EC50” is determined from a four parameter fit of a full agonist concentration response curve (Cheng and Prusoff 1973). Mean Kb values are calculated as a mean of at least three independent determinations±standard error of the mean (SEM). […]

hCB-1 [2] = biological target: T1, hCB-1; assay: hCB1-Sf9 antagonist mode SPA GTP-γ-35S binding assay; format: biochemical; set-up: purchased Applied Cell Sciences, Rockville, Md; conditions: Sf9 membrane 22.7 μg; antagonist mode vs methanandamide; read-out: hCB-1 SPA GTPγS Sf9 Membrane 22.7 μg Antagonist Kb
Protocol: Compounds of the present invention may be tested for functional activity at the CB-1 and CB-2 receptors in both agonist and antagonist modes using SPA (Scintillation Proximity Assay) based GTP-γ-^35S binding assays. All assay components are prepared in assay buffer (20 mM HEPES, 100 mM NaCl, 5 mM MgCl2, pH 7.4) at room temperature. Semi-log dilutions of test compound are prepared in assay buffer containing BSA (0.125% final conc.) for the agonist mode assays. For the antagonist mode assays, test compounds are prepared in the same manner but also include an 80% efficacious dose of a full agonist (methanandamide). GTP-γ^35S binding for the antagonist assay may be measured in a 96 well format using a modification of an antibody capture technique previously described. (DeLapp, N W, et al. (1999) J Pharmacol Exp Ther 289:946-955.) The CB-2 receptor agonist activity may be measured using a similar method using hCB2-Sf9 membranes. The CB-1 receptor agonist activity may be measured using a whole membrane capture technique using hCB1-CHO membranes. All incubations are done at room temperature. […]
Data are analyzed as follows: Background is subtracted from all wells. […] Percent antagonist inhibition is calculated by first normalizing the data to the signal generated by a saturating concentration of the full agonist (methanandamide). Then the data are analyzed using a 4-parameter logistic reduced fit (Activity Base™ and XLFit3™ from IDBS, Emeryville, Calif.). Kb values are determined using a modification of the Cheng-Prusoff relationship: Kb=IC50/(1+[agonist]/EC50), where “IC50” is determined from a four parameter fit of displacement curves, “[agonist]” is the agonist challenge concentration (nM), and “EC50” is determined from a four parameter fit of a full agonist concentration response curve (Cheng and Prusoff 1973). Mean Kb values are calculated as a mean of at least three independent determinations±standard error of the mean (SEM). […]

T1 sequence (P21554 whole entry): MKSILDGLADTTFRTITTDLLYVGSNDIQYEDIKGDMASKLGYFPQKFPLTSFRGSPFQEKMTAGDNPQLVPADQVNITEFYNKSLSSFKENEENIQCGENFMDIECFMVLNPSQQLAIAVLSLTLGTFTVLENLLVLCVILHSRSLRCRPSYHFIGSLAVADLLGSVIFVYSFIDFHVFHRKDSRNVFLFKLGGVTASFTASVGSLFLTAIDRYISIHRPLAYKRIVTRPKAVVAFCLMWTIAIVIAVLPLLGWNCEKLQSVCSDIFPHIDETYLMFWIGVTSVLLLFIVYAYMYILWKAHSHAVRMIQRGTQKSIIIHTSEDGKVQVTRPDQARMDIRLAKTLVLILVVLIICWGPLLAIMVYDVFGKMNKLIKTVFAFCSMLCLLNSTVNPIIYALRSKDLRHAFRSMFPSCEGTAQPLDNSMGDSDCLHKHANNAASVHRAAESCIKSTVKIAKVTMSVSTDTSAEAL

For CC(C)(N[C@@H]1C[C@H](c2cccc(C(F)(F)F)c2)N(c2ccc(OC(F)(F)F)cc2)C1=O)c1cccc(C(F)(F)F)n1 [28 HCl salt, (3R,5R)-3-[1-methyl-1-(6-trifluoromethyl-pyridin-2-yl)-ethylamino]-1-(4-trifluoromethoxy-phenyl)-5-(3-trifluoromethyl-phenyl)-pyrrolidin-2-one], the bioavailability (Dog oral bioavailability) was 32 ± 18%, the bioavailability (Rat oral bioavailability) was 40 ± 6% and the EC50 (hCB-1 [1]) was 1.27 nM. It also gave a Kb (hCB-1 [2]) of 0.59 nM.
